The assay is described as follows: Inhibition of hypoxia-induced HIF1alpha protein accumulation in human Hep3B cells treated for 30 mins measured after 12 hrs by Western blot analysis.
`CC1(C)Oc2cc3oc(-c4cc(O)cc(O)c4)cc3cc2C[C@H]1O` [(-)-Moracin P] displayed an IC50 of 0.65 nM.
For the compound `CC1=C[C@H]2c3c(O)cc(-c4cc5ccc(O)cc5o4)cc3O[C@@]3(c4ccc(O)cc4O)Oc4cc(O)ccc4[C@H](C1)[C@@H]23` [CHEBI:2544], the IC50 came out at 2600 nM. This IC50 is about 4000-fold higher than that of the compound before.
To `COc1c(O)cc2oc(-c3cc(O)cc(O)c3)cc2c1CC(=O)C(C)C` [Moracin Q] belongs 5880 nM; to `C[C@@]12C=C(c3c(O)cc(-c4cc5ccc(O)cc5o4)cc3O)C[C@@H](C1)c1ccc(O)cc1O2` [Mulberrofuran H], 140 nM; to `CC(C)=CC[C@@]12Oc3cc(O)c([C@H]4C=C(C)C[C@H](c5ccc(O)cc5O)[C@H]4C(=O)c4ccc(O)cc4O)c(O)c3C(=O)[C@]1(O)Oc1cc(O)ccc12` [Sanggenon O], 1030 nM.
In turn, `CC(C)=CCC/C(C)=C/Cc1c(O)cc(O)cc1-c1cc2ccc(O)cc2o1` [albafuran A] displayed an IC50 of 3510 nM. Compared with the last compound, the IC50 is about 3.4-fold higher.
On to `Oc1cc(O)cc(-c2cc3ccc(O)cc3o2)c1` [moracin M], for which the IC50 was > 50000 nM.
`CC(C)(O)C1Cc2cc3cc(-c4cc(O)cc(O)c4)oc3cc2O1` (stereo unspecified) [moracin O] registered an IC50 of 0.14 nM.
To `CC(C)=CCC/C(C)=C/Cc1c(O)ccc2cc(-c3cc(O)cc(O)c3CC=C(C)C)oc12` [mulberrofuran D] belongs 4050 nM.
The compound `CC(C)=CCC/C(C)=C\CC/C(C)=C\Cc1c(O)cc(O)cc1-c1cc2ccc(O)cc2o1` [mulberrofuran W] registered a half-maximal inhibitory concentration (IC50) of 3620 nM.
Under `CC(C)=CC[C@]12Oc3cc(O)c([C@H]4C=C(C)C[C@H](c5ccc(O)cc5O)[C@H]4C(=O)c4ccc(O)cc4O)c(O)c3C(=O)[C@@]1(O)Oc1cc(O)ccc12` [sanggenon C] stands 1260 nM.

(Values after BindingDB's records for doi:10.1021/np800491u (Korean Research Institute of Biosciences and Biotechnology, 2009).)
